Results on 1 molecule are retold here after patent US9375436B2, “Androgen treatment in females” (priority 2004, dated 2016).

The subject of data set [1] is embryos of women undergoing IVF. Briefly: Pre-implantation genetic diagnosis, euploidy rate by length of DHEA usage (Example 3). It counts as in vivo, human. The procedure: In another study (data not shown), patients were analyzed after four weeks of DHEA treatment. Seven patients had embryos tested by pre-implantation genetic diagnosis (PGD). In three women who had PGD after less than four weeks of DHEA usage and a mean age 41.5±5.1 at the time of starting IVF cycles, the euploidy, or normal chromosome number, rate was 2/30 embryos (6.6%). […] There is a mean age difference between patients who underwent IVF after less than four weeks of DHEA usage (mean age 41.5±5.1) and patients who underwent IVF after at least four weeks of DHEA usage (mean age 43.7±1.3).

The subject of data set [2] is patients with prior clomiphene citrate failures. Particulars: 47 patients, 75 mg daily DHEA at least 60 days prior to inseminations; cited from earlier work.
Data set [3] is described as follows: Case report: DHEA substitution in probable 17,20-desmolase deficiency (Patient B, Example 5). It counts as in vivo, human. Particulars: human, in vivo, oral, normal (130-980), read-out: DHEA level. The procedure: (§1) In a further study, a case of probable 17, 20-desmolase deficiency, resulting in abnormally low estradiol, DHEA, androstenedione and testosterone levels, is presented in a person with a clinical history of, initially, unexplained infertility and, later, prematurely aging ovaries.
(§2) In July of 2003, the patient was started on 25 mg daily of micronized DHEA. After five weeks of treatment, DHEA, DHEA-S and androstenedione levels had normalized into mid-ranges. (Even though androstenedione is partially produced through the activity of 17,20-desmolase from 17-hydroxyprogesterone, part is also derived from DHEA through the activity of 3-beta hydroxysteroid dehydrogenase [Speroff et al., 1999a]. The normalization of androstenedione, after DHEA administration, therefore, also speaks for an underlying 17,20-desmolase defect, and not a 3-beta hydroxysteroid dehydrogenase deficiency.) In the third and fourth month, following the start of DHEA supplementation, the patient ovulated spontaneously with estradiol levels of 268 and 223 pg/ml (Table 2), respectively, measured on the day of LH surge.
(§3) On Jan. 28, 2004, and after DHEA therapy of approximately six months, a fourth IVF cycle was initiated. Their baseline FSH level in that cycle was 9.6 mIU/ml, estradiol 56 pg/ml. Stimulation took place with 300 IU of recombinant FSH (without hMG) and with an agonist flare protocol. […] A triplet pregnancy was established with heart beats. Two, out of the three fetuses lost heart beat spontaneously, and the patient delivered by cesarean section, at term, a healthy singleton infant.

Data set [4] concerns person with prematurely aging ovaries. Described as above. It counts as in vivo, human. Particulars: for Estradiol periovulatory: spontaneous ovulation. The procedure: as §1, §2, §3
Where [5] appears, read: January 2004, 4th IVF cycle start, DHEA approximately six months.
Setting [6] is: fourth IVF cycle after DHEA therapy of approximately six months.

“And” between values parts separate entries of the source, which are not always exact repeats. Equal entries are not always repeated.

Regarding `C[C@]12CC[C@H](O)CC1=CC[C@@H]1[C@@H]2CC[C@]2(C)C(=O)CC[C@@H]12` [DHEA, Dehydroepiandrosterone], the euploidy rate in data set [1] (PGD after less than four weeks of DHEA usage, three women, 2/30 embryos) is recorded as 6.6%. The euploidy rate in data set [1] (PGD after more than four weeks of DHEA usage, six patients, 8/27 embryos) stood at 29.6%. In addition, in data set [2], the live births is 21.3% and the pregnancy rate is 29.8%. In addition, the concentration at 5 months in data set [3] (25 mg daily, December 2003, on DHEA) came out at 278 ng/mL. Also, the concentration at 5 weeks in data set [3] (July 2003 after DHEA treatment start, 25 mg daily micronized) was 2.96 ng/mL. The same molecule yielded a Testosterone free in data set [4] (December 2003, on DHEA, normal (1-21)) of 2 pg/mL. In data set [4] (December 2003, on DHEA, normal (3-29)), the “Testosterone free and weekly bound” value was determined as 4 ng/dL. In data set [4] (setting [5]), this molecule returned an Estradiol baseline of 56 pg/mL and an FSH baseline of 9.6 mIU/ml. In data set [4] (January 2004, on DHEA, first value), the FSH turned out to be 18 mIU/ml. Moreover, the Androstenedione level in data set [4] (July 2003 after DHEA treatment start, normal (65-270)) stood at 121 ng/dL. In data set [4] (November 2003, on DHEA), this molecule showed an Estradiol of 38 pg/mL and an FSH of 17 mIU/ml. In data set [4] (October 2003, on DHEA), the Estradiol was found to be 44 pg/mL; the FSH is 14.7 mIUI/ml; the Estradiol periovulatory was 223 pg/mL and 224 pg/mL. Also, the Estradiol periovulatory in data set [4] (September 2003, on DHEA) is 268 pg/mL. In data set [4] (setting [6]), this molecule displayed an oocytes retrieved of 8 and a peak estradiol level of 1764 pg/mL.
